Legend:
G2019S LRRK2 = target: T1, G2019S LRRK2 (Homo sapiens, UniProt Q5S007, G2019S); experiment: LRRK2 degradation assay, G2019S LRRK2-HiBit expressed from plasmid in HEK293 cells; assay type: cell-based; conditions: HEK293 cells transfected with HiBit-tagged G2019S LRRK2, 24 hours compound incubation
T1 construct: expressed in transfected cells; host or cells: HEK293 (ATCC CRL-1573), transient transfection, ubiquitin promoter
Experimental: (§1) The assay measures the degradation of wildtype and G2019S LRRK2 tagged with a HiBit tag on the C-terminus of the protein that was expressed from a mammalian expression vector, driven by the ubiquitin promoter in HEK293 cells. Each compound dose-response was repeated on two separate days, on three separate plates each day.
(§2) Plasmid Preparation. Transfection mixes were assembled as follows and incubated for 30 minutes at room temperature. In a 15 mL tube, 5.25 mL Opti-MEM (no additions) was mixed with 17 μL Firefly Luciferase plasmid at 1 μg/μL and 158 μL WT plasmid DNA at 1 μg/μL (175 μg total DNA) were mixed by flicking. In a new 15 mL tube, 5.25 mL OptiMEM was mixed with 17 μL Firefly Luciferase plasmid at 1 μg/μL and 158 μL G2019S plasmid DNA at 1 μg/μL (175 μg total DNA) were mixed by flicking. X-tremeGene HP was mixed thoroughly using a vortex. Next, 175 μL was added to each tube and flicked to mix. Both tubes were left to incubate for 30 minutes at room temperature.
(§3) While the transfection mixes were incubating, HEK293 cells (acquired from ATCC; ATCC CRL-1573) were harvested with trypsin. Once cells are detached, the cells were resuspended in 12 mL OptiMEM+5% FBS and transferred to a 50 mL tube. The cells were mixed well and counted. Using OptiMEM+5% FBS, the cells were diluted in two 250 mL conical tubes at 0.71×10^6 cells/mL in 70 mL. One tube was labeled “WT” and the other “G2019S”. The WT and G2019S transfection mixes were added dropwise to the corresponding 250 mL tubes. The tubes were mixed first by pipetting then by swirling. The tubes were incubated at room temperature for at least 5 minutes.
(§4) Each tube was swirled before dispensing and after every three plates. Seventy microliters of cells were dispensed with WT or G2019S DNA to seven plates each. Three plates of each were tested with compound plate one (preparation described below) and three plates of each were tested with compound plate two (preparation described below). The first plate from each set served as a “prime” plate and was not used to test compounds. Each plate was incubated in the hood for 10 minutes before placing in the 37° C. incubator for 24 hours.
(§5) Preparation of Compound and Assay Plates. Two compound plates were made using 96 well polypropylene plates. Compounds were made up at 10 mM and were diluted to 1 mM in 30 μL. Each dose response curve included a well of DMSO, as a negative control and for normalization, and a well of 0.5 μM of Exemplary Compound 4 as a positive control. In addition to seven test compounds, each plate also included a dose response of Exemplary Compound 4. The compound plates were spun down along at 1200 rpm for 2 minutes.
(§6) The two compound plates were then mixed and 2 μL was diluted in intermediate plates having 248 μL of Opti-Mem in each well. Next, 10 μL diluted compounds from the intermediate plates were added to each test plate (three WT and three G2019S plates per compound plate for a total of 12 assay plates). The plates were incubated for 24 hours at 37° C.
(§7) All assay plates and all Nano-Glo Dual-Luciferase Reporter Assay System components (except for the DLR substrate) were equilibrated to room temperature. Next, the luciferase buffer was mixed with the lyophilized amber bottle until fully dissolved, and 75 μL of the luciferase mixture was added to each well of each assay plate. The assay plates were incubated for 10 minutes at room temperature with shaking for at least 5 minutes, and then read on a plate reader.
(§8) Developing Plates and Analyzing Data. One milliliter of DLR substrate and 1 mL LgBiT Protein were added to the Stop and Glo buffer, and 75 μL of the mixture was added to each well of each plate. Optically clear seals were added to each plate and each plate was incubated for 20 minutes with shaking for at least 10 minutes, and then read on a plate reader. […]

wildtype LRRK2 = target: T2, wildtype LRRK2 (Homo sapiens, UniProt Q5S007); experiment: LRRK2 degradation assay, wildtype LRRK2-HiBit expressed from plasmid in HEK293 cells; assay type: cell-based; conditions: HEK293 cells transfected with HiBit-tagged wildtype LRRK2, 24 hours compound incubation; for Dmax: read-out: **WT Dmax (%); for DC50: read-out: *WT DC50
T2 construct: expressed in transfected cells; host or cells: HEK293 (ATCC CRL-1573), transient transfection, ubiquitin promoter
Experimental: as §1, §2, §3, §4, §5, §6, §7, §8

T1 sequence (Q5S007 whole entry G2019S): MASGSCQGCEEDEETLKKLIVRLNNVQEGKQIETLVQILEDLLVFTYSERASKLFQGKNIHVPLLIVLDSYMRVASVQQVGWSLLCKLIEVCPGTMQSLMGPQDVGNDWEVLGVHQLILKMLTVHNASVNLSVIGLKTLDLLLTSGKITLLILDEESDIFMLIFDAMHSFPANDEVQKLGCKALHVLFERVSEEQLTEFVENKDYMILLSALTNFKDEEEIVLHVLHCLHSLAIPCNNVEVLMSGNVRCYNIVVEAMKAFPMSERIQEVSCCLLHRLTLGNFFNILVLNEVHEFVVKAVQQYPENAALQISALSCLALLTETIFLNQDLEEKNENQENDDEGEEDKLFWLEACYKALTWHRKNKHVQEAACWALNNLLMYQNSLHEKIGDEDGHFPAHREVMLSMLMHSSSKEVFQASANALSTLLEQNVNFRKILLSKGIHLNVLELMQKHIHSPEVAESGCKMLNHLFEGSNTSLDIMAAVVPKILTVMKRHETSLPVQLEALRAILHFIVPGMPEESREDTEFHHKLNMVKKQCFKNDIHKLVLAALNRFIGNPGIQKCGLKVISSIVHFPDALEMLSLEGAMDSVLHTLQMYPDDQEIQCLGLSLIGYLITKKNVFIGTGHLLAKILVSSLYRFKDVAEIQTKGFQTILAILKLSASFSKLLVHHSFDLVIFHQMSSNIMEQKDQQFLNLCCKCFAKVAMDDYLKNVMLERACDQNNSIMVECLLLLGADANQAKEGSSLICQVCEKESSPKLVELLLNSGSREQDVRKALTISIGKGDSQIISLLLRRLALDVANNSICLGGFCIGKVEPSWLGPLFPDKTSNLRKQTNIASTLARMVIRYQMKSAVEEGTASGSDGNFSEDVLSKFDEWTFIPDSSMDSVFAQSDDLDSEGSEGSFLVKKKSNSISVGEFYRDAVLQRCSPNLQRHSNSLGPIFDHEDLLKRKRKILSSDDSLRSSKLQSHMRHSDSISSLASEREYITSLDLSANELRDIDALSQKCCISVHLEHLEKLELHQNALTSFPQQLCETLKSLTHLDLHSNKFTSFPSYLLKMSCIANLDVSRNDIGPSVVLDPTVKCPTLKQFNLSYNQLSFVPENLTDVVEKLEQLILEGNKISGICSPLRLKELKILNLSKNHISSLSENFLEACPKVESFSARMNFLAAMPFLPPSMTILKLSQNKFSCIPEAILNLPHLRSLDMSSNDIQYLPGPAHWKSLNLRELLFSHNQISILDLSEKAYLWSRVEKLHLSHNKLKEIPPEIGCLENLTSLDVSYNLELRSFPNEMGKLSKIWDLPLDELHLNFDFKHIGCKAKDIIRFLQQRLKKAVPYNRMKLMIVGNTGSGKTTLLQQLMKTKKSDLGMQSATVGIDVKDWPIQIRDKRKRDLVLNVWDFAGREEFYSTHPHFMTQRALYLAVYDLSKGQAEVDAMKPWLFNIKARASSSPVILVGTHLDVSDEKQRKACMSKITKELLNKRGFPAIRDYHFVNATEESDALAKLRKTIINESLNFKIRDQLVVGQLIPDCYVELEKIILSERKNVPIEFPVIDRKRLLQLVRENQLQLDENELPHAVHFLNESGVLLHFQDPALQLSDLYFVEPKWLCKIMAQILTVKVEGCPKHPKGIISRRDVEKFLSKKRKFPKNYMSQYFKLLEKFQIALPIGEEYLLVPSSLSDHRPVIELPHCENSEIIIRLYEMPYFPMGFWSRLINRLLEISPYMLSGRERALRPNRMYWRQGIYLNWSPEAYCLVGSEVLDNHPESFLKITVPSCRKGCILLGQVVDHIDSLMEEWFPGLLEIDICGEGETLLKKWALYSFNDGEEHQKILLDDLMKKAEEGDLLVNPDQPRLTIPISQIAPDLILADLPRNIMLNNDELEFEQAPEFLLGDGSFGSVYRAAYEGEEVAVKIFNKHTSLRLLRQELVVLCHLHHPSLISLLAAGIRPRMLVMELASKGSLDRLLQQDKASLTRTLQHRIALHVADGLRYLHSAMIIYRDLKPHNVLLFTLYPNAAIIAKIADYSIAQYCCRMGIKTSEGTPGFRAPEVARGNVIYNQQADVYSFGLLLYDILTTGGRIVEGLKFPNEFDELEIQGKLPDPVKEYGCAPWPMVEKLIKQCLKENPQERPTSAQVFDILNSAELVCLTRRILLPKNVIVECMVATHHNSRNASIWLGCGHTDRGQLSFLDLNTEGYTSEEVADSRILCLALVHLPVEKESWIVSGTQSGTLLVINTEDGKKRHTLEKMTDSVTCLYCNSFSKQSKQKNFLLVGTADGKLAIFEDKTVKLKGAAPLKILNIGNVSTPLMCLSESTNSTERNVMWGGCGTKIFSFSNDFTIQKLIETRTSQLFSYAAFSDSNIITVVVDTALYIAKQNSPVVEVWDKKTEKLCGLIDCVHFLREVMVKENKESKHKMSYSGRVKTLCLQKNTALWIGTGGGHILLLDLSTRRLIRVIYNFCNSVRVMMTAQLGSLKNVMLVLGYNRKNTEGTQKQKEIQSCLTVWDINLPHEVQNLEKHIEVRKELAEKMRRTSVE
T2 sequence (Q5S007 whole entry): as the sequence (Q5S007 whole entry G2019S) above, with S2019G counted along it

DC50 (G2019S LRRK2) | Dmax (G2019S LRRK2) | Dmax (wildtype LRRK2) | DC50 (wildtype LRRK2) | SMILES
< 10 nM | ≥ 70% | ≥ 70% | < 10 nM | CC1(Oc2ccc3[nH]nc(-c4cc(N5CCN(CCN6CCC(CN7CCN(c8ccc9c(c8)C(=O)N(C8CCC(=O)NC8=O)C9=O)CC7)CC6)CC5)ncn4)c3c2)CC1 (stereo not drawn) [compound 28, 2-(2,6-dioxopiperidin-3-yl)-5-[4-({1-[2-(4-{6-[5-(1-methylcyclopropoxy)-1H-indazol-3-yl]pyrimidin-4-yl}piperazin-1-yl)ethyl]piperidin-4-yl}methyl)piperazin-1-yl]-2,3-dihydro-1H-isoindole-1,3-dione]
< 10 nM | ≥ 70% | ≥ 70% | < 10 nM | C[C@H]1CN(c2cc(-c3n[nH]c4ccc(OC5(C)CC5)cc34)ncn2)CCN1CCN1CCC(CN2CCN(c3ccc4c(c3)C(=O)N(C3CCC(=O)NC3=O)C4=O)CC2)CC1 (stereo partly drawn) [compound 29, 2-(2,6-dioxopiperidin-3-yl)-5-{4-[(1-{2-[(2S)-2-methyl-4-{6-[5-(1-methylcyclopropoxy)-1H-indazol-3-yl]pyrimidin-4-yl}piperazin-1-yl]ethyl}piperidin-4-yl)methyl]piperazin-1-yl}-2,3-dihydro-1H-isoindole-1,3-dione]
< 10 nM | ≥ 70% | ≥ 70% | < 10 nM | CC(C)Oc1ccc2[nH]nc(-c3cc(N4CCN(CCN5CCC(CN6CCN(c7ccc8c(c7)C(=O)N(C7CCC(=O)NC7=O)C8=O)CC6)CC5)[C@@H](C)C4)ncn3)c2c1 (stereo partly drawn) [compound 30, 2-(2,6-dioxopiperidin-3-yl)-5-{4-[(1-{2-[(2S)-2-methyl-4-{6-[5-(propan-2-yloxy)-1H-indazol-3-yl]pyrimidin-4-yl}piperazin-1-yl]ethyl}piperidin-4-yl)methyl]piperazin-1-yl}-2,3-dihydro-1H-isoindole-1,3-dione]
10 to 50 nM | ≥ 70% | ≥ 70% | < 10 nM | CC(C)Oc1ccc2[nH]nc(-c3cc(N4CCN(CCN5CCC(CN6CCN(c7ccc8c(c7)CN(C7CCC(=O)NC7=O)C8=O)CC6)CC5)[C@@H](C)C4)ncn3)c2c1 (stereo partly drawn) [compound 31, 3-(5-{4-[(1-{2-[(2S)-2-methyl-4-{6-[5-(propan-2-yloxy)-1H-indazol-3-yl]pyrimidin-4-yl}piperazin-1-yl]ethyl}piperidin-4-yl)methyl]piperazin-1-yl}-1-oxo-2,3-dihydro-1H-isoindol-2-yl)piperidine-2,6-dione]
≥ 100 nM | < 50% | < 50% | ≥ 100 nM | CC(C)Oc1ccc2[nH]nc(-c3cc(N4CCN(CCN5CC(OCCOc6ccc7c(c6)C(=O)N(C6CCC(=O)NC6=O)C7=O)C5)[C@@H](C)C4)ncn3)c2c1 (stereo partly drawn) [compound 32, 2-(2,6-dioxopiperidin-3-yl)-5-{2-[(1-{2-[(2S)-2-methyl-4-{6-[5-(propan-2-yloxy)-1H-indazol-3-yl]pyrimidin-4-yl}piperazin-1-yl]ethyl}azetidin-3-yl)oxy]ethoxy}-2,3-dihydro-1H-isoindole-1,3-dione]
< 10 nM | ≥ 70% | ≥ 70% | 10 to 50 nM | C[C@H]1CN(c2cc(-c3n[nH]c4ccc(OC5(C)CC5)cc34)ncn2)CCN1CCOC1CCN(CC2CCN(c3ccc4c(c3)C(=O)N(C3CCC(=O)NC3=O)C4=O)CC2)CC1 (stereo partly drawn) [compound 33, 2-(2,6-dioxopiperidin-3-yl)-5-{4-[(4-{2-[(2S)-2-methyl-4-{6-[5-(1-methylcyclopropoxy)-1H-indazol-3-yl]pyrimidin-4-yl}piperazin-1-yl]ethoxy}piperidin-1-yl)methyl]piperidin-1-yl}-2,3-dihydro-1H-isoindole-1,3-dione]
≥ 100 nM | 50 to 70% | ≥ 70% | 50 to 100 nM | CC(C)Oc1ccc2[nH]nc(-c3cc(N4CCN(CCOCCC#CCN5CCN(c6ccc7c(c6)C(=O)N(C6CCC(=O)NC6=O)C7=O)CC5)[C@@H](C)C4)ncn3)c2c1 (stereo partly drawn) [compound 34, 2-(2,6-dioxopiperidin-3-yl)-5-[4-(5-{2-[(2S)-2-methyl-4-{6-[5-(propan-2-yloxy)-1H-indazol-3-yl]pyrimidin-4-yl}piperazin-1-yl]ethoxy}pent-2-yn-1-yl)piperazin-1-yl]-2,3-dihydro-1H-isoindole-1,3-dione]
50 to 100 nM | < 50% | < 50% | 50 to 100 nM | CC(C)Oc1ccc2[nH]nc(-c3cc(N4CCN(CCN5CC6(CN(CCOc7ccc8c(c7)C(=O)N(C7CCC(=O)NC7=O)C8=O)C6)C5)[C@@H](C)C4)ncn3)c2c1 (stereo partly drawn) [compound 35, 2-(2,6-dioxopiperidin-3-yl)-5-[2-(6-{2-[(2S)-2-methyl-4-{6-[5-(propan-2-yloxy)-1H-indazol-3-yl]pyrimidin-4-yl}piperazin-1-yl]ethyl}-2,6-diazaspiro[3.3]heptan-2-yl)ethoxy]-2,3-dihydro-1H-isoindole-1,3-dione]
10 to 50 nM | ≥ 70% | ≥ 70% | 10 to 50 nM | CC(C)Oc1ccc2[nH]nc(-c3cc(N4CCN(CCN(C)CCCN5CCN(c6ccc7c(c6)C(=O)N(C6CCC(=O)NC6=O)C7=O)CC5)[C@@H](C)C4)ncn3)c2c1 (stereo partly drawn) [compound 36, 2-(2,6-dioxopiperidin-3-yl)-5-(4-{3-[methyl({2-[(2S)-2-methyl-4-{6-[5-(propan-2-yloxy)-1H-indazol-3-yl]pyrimidin-4-yl}piperazin-1-yl]ethyl})amino]propyl}piperazin-1-yl)-2,3-dihydro-1H-isoindole-1,3-dione]
50 to 100 nM | 50 to 70% | 50 to 70% | ≥ 100 nM | CC(C)Oc1ccc2[nH]nc(-c3cc(N4CCN(CCN(C)CCN5CCN(c6ccc7c(c6)C(=O)N(C6CCC(=O)NC6=O)C7=O)CC5)[C@@H](C)C4)ncn3)c2c1 (stereo partly drawn) [compound 37, 2-(2,6-dioxopiperidin-3-yl)-5-(4-{2-[methyl({2-[(2S)-2-methyl-4-{6-[5-(propan-2-yloxy)-1H-indazol-3-yl]pyrimidin-4-yl}piperazin-1-yl]ethyl})amino]ethyl}piperazin-1-yl)-2,3-dihydro-1H-isoindole-1,3-dione]
≥ 100 nM | ≥ 70% | ≥ 70% | 50 to 100 nM | CC(C)Oc1ccc2[nH]nc(-c3cc(N4CCN(CCCN(C)CCCN5CCN(c6ccc7c(c6)C(=O)N(C6CCC(=O)NC6=O)C7=O)CC5)[C@@H](C)C4)ncn3)c2c1 (stereo partly drawn) [compound 38, 2-(2,6-dioxopiperidin-3-yl)-5-(4-{3-[methyl({3-[(2S)-2-methyl-4-{6-[5-(propan-2-yloxy)-1H-indazol-3-yl]pyrimidin-4-yl}piperazin-1-yl]propyl})amino]propyl}piperazin-1-yl)-2,3-dihydro-1H-isoindole-1,3-dione]
10 to 50 nM | ≥ 70% | ≥ 70% | < 10 nM | CC(C)Oc1ccc2[nH]nc(-c3cc(N4CCN(CCN5CCN(CC6CCN(c7ccc8c(c7)C(=O)N(C7CCC(=O)NC7=O)C8=O)CC6)CC5)CC4)ncn3)c2c1 (stereo not drawn) [compound 39, 2-(2,6-dioxopiperidin-3-yl)-5-(4-((4-(2-(4-(6-(5-isopropoxy-1H-indazol-3-yl)pyrimidin-4-yl)piperazin-1-yl)ethyl)piperazin-1-yl)methyl)piperidin-1-yl)isoindoline-1,3-dione]

Reference: patent US20250114356A1, “INDAZOLE BASED COMPOUNDS AND ASSOCIATED METHODS OF USE” (Arvinas Operations, Inc., priority 2020, published 2025)
